Assay results published in patent US20030138380A1, “Gas emulsions stabilized with fluorinated ethers having low Ostwald coefficients” (priority 1995, published 2003).

Legend:
[1] = 25 degrees C.; literature, or if not there calculated with the model of Lawson et al.; cited from earlier work
rabbit carotid artery = experiment: Pulsed Doppler Signal Enhancement Rabbit Model (carotid artery); assay type: in vivo; settings: Powder D, osmotic agent in mixture with nitrogen, injected dose 0.2 ml (ca. 1 mg dry powder per kg)
Experimental: (§1) One ml of the resulting microbubble suspension was injected intravenously into an approximately 3 kg rabbit instrumented to monitor the Doppler ultrasound signal of its carotid artery. A 10 MHz flow cuff (Triton Technology Inc., San Diego, Calif.; model ES-10-20) connected to a System 6 Doppler flow module (Triton Technology Inc.) fed the RF Doppler signal to a LeCroy 9410 oscilloscope (LeCroy, Chestnut Ridge, N.Y.). The root mean square (RMS) voltage of the signal computed by the oscilloscope was transferred to a computer and the resultant curve fitted to obtain peak echogenic signal intensity and half-life of the microbubbles in blood. Signals before contrast were less than 0.1 volts RMS.
as §1, with “half-ife” for “half-life”
as §1, with “RF doppler” for “RF Doppler”, “obtain Peak” for “obtain peak”
100 mg samples of the spray-dried powder were placed in 10-ml vials and gassed by perfluoroether-air mixture repeated evacuation-gassing cycles with the help of a syringe needle equipped with a three-way valve. As the filling gases, perfluorodimethyl ether (85%, Exfluor Research, Austin, Tex.), perfluoro(methylethyl ether) (80%, Exfluor Research, Austin, Tex.), perfluoro(diethyl ether) (90%, Strem Chemicals, Newburyport, Mass.), n-perfluoropropane and n-perfluorobutane (97%, PCR Incorporated) were used. […] Their echogenic properties in vivo were evaluated using a Pulsed Doppler Signal Enhancement Rabbit Model as described in Example III.
After reconstituting the powder with 10 ml of water, the bubbles were formed. Their echogenic properties in vivo were evaluated using a Pulsed Doppler Signal Enhancement Rabbit Model, as described in Example III, with the difference that the injected dose was reduced to 0.2 ml (ca. 1 mg of dry powder per kg of rabbit). FIGS. 2a, 2b, and 2c compare the decay of ultrasound signal over time for different filling gases at close partial pressures. The data are arranged in pairs so that microbubble preparations comprising perfluoroethers (thick lines) are compared directly with their perfluorocarbon analogues (thin lines). From the graphs it is evident that perfluoroether-filled bubbles have a longer persistence in the bloodstream than their fluorocarbon analogues.

pig heart = experiment: Second harmonic ultrasound imaging of the heart, pig model; assay type: in vivo, pigs; settings: Powder D with osmotic agent-N2 mixture, 0.5 mL infused over 1 min via jugular vein
Experimental: After reconstituting the powder with 10 ml of water, the bubbles were formed.
Anesthetized pigs (14-16 kg) were fitted with indwelling catheters in the femoral artery and femoral and jugular veins for hemodynamic monitoring and contrast agent administration. Parasternal short-axis cardiac images at the level of the papillary muscles were obtained using an HP Sonos 2500 Ultrasound machine. Images were acquired in the Second Harmonic mode with a wide bandwidth linear phased array probe emitting at 2 MHz and receiving at 4 MHz. Imaging was intermittent (gated), triggered at end-diastole of every cardiac cycle. 0.5 mnL of reconstituted contrast agent was diluted with 0.5 mL sterile saline and infused over 1 min via the jugular vein.
FIGS. 3, 4, and 5 show a time course of ultrasound images of the heart following intravenous administration of contrast agents. […] FIGS. 4 and 5 show ultrasound images of the same hearts one minute and six minutes after infusion with the respective contrast agents. FIGS. 3a, 4a, and 5a show the ultrasound images of the heart following intravenous administration of contrast agent stabilized by perfluoropolyether. FIGS. 3b, 4b, and 5b show the ultrasound images of the heart following intravenous administration of contrast agent stabilized by perfluorohexane.

[2] = 25 degrees C.; first four values, as reported by Wilhelm, Battino and Wilcock; cited from earlier work

FC(F)(F)OC(F)(F)C(F)(F)OC(F)(F)C(F)(F)OC(F)(F)F [CF3O(CF2CF2O)2CF3, perfluorodiglyme]
PF, sat9 atm (saturated vapor pressure) [1]: 0.20 atm | Time of decay of the Doppler signal to baseline, s, at ρF = 0.13 ± 0.03 atm (rabbit carotid artery): >1800 s

FC(F)(F)OC(F)(F)C(F)(F)OC(F)(F)C(F)(F)F [CF3OC2F4OC2F5]
PF, sat9 atm (saturated vapor pressure) [1]: 0.55 atm

FC(F)(F)OC(F)(F)C(F)(F)OC(F)(F)F [CF3OC2F4OCF3, perfluoromonoglyme]
PF, sat9 atm (saturated vapor pressure) [1]: 1.16 atm | Time of decay of the Doppler signal to baseline, s, at ρF = 0.13 ± 0.03 atm (rabbit carotid artery): 400 s

FC(F)(F)OC(F)(F)F [CF3OCF3, perfluorodimethylether]
PF, sat9 atm (saturated vapor pressure) [1]: 10.9 atm

FC(F)(F)OC(F)(F)OC(F)(F)OC(F)(F)OC(F)(F)F [CF3—(OCF2)3OCF3]
contrast of the heart one minute after injection (pig heart): Substantial contrast of the heart | tissue contrast of the heart at six minutes (pig heart): still a great deal of tissue contrast | Time of decay of the Doppler signal to baseline, s, at ρF = 0.13 ± 0.03 atm (rabbit carotid artery): 1200 s

FC(F)(F)F [CF4]
PF, sat9 atm (saturated vapor pressure) [1]: 159 atm | L × 10^6 (Ostwald coefficient) [2]: 5172

FS(F)(F)(F)(F)F [SF6]
PF, sat9 atm (saturated vapor pressure) [1]: 23.5 atm | L × 10^6 (Ostwald coefficient) [2]: 5950

FC(F)(F)C(F)(F)OC(F)(F)C(F)(F)F [Sample C2F5OC2F5, perfluorodiethylether]
PF, sat9 atm (saturated vapor pressure) [1]: 1.9 atm

FC(F)(F)C(F)(F)F [Sample C2F6, C2F6]
PF, sat9 atm (saturated vapor pressure) [1]: 26.2 atm

FC(F)(F)C(F)(F)C(F)(F)OC(F)(F)C(F)(F)C(F)(F)F [Sample C3F7OC3F7, C3F7OC3F7]
PF, sat9 atm (saturated vapor pressure) [1]: 0.30 atm

O=O [Sample O2, oxygen]
L × 10^6 (Ostwald coefficient) [2]: 31110

FC(F)(F)C(F)(F)C(F)(F)F [n-C3F8, n-perfluoropropane]
PF, sat9 atm (saturated vapor pressure) [1]: 6.8 atm

FC(F)(F)C(F)(F)C(F)(F)C(F)(F)F [n-C4F10, perfluorobutane]
PF, sat9 atm (saturated vapor pressure) [1]: 2.2 atm | Time of decay of the Doppler signal to baseline, s, at ρF = 0.13 ± 0.03 atm (rabbit carotid artery): 300 s

FC(F)(F)C(F)(F)C(F)(F)C(F)(F)C(F)(F)F [n-C5F12, perfluoropentane]
PF, sat9 atm (saturated vapor pressure) [1]: 0.84 atm | Time of decay of the Doppler signal to baseline, s, at ρF = 0.13 ± 0.03 atm (rabbit carotid artery): 400 s

FC(F)(F)C(F)(F)C(F)(F)C(F)(F)C(F)(F)C(F)(F)F [n-C6F14, perfluorohexane]
PF, sat9 atm (saturated vapor pressure) [1]: 0.27 atm | contrast of the heart one minute after injection (pig heart): Substantial contrast of the heart | tissue contrast of the heart at six minutes (pig heart): declined markedly | Time of decay of the Doppler signal to baseline, s, at ρF = 0.13 ± 0.03 atm (rabbit carotid artery): 600 s

nitrogen [Sample N2]
L × 10^6 (Ostwald coefficient) [2]: 15880
